Data set [1] in a line: Cytotoxicity against human Hep3B cells after 48 hrs by SRB assay. In kind it is functional, cell-based, Hep 3B2. Background: In SRB staining, fixed cells bind dye roughly in proportion to their protein.
In data set [2] the test system is Hep 3B2. As to the kind of experiment: Antitumor activity against human Hep3B cells xenografted in athymic nude mouse assessed as retardation of tumor growth at 10 mg/kg/day, ip for 4 consecutive days. The data set is classed as functional, organism-based. (In general: In xenograft studies the graft and the host belong to different species.)
Data set [3] deals with Mus musculus. Nature of the data set: Toxicity in human Hep3B cells xenografted athymic nude mouse assessed as induction of necrotic damage in liver at 10 mg/kg/day, ip for 4 consecutive days. In kind it is organism-based, Hep 3B2. Also on record: route intraperitoneal. The settings on record: in vivo.
Data set [4] deals with Mus musculus. As to the kind of experiment: Toxicity in human Hep3B cells xenografted athymic nude mouse assessed as induction of necrotic damage in kidney at 10 mg/kg/day, ip for 4 consecutive days. Set-up: route intraperitoneal. Particulars: in vivo. The data set is classed as organism-based, Hep 3B2.
[5] abbreviates: Homo sapiens, Hep3B, 48 h, read-out: IC50.

In brackets after ≈: the same amount, converted by molar mass. Several values for one entry are separate records, joined by “and”; a condition that tells them apart may be missing. Equal entries are not always repeated. Activity calls are given as the source filed them. No cut-off for these calls is given here.

Broadly, the IC50 is the concentration needed to halve the response being measured.

Turning to `COc1cc(P(c2ccccc2)c2ccccc2)c(-c2c(P(c3ccccc3)c3ccccc3)cc(OC)nc2OC)c(OC)n1`, in data set [1] (setting [5]), the half-maximal inhibitory concentration (IC50) was greater than 50 µg/mL.
Still for that read-out and setting: next, `c1ccc(P(c2ccccc2)c2ccc3ccccc3c2-c2c(P(c3ccccc3)c3ccccc3)ccc3ccccc23)cc1`: greater than 50 µg/mL.
On to `O=P(c1ccccc1)(c1ccccc1)c1ccc2ccccc2c1-c1c(P(=O)(c2ccccc2)c2ccccc2)ccc2ccccc12`, for which, in data set [2], the inhibition entry was “Active”. Also, the Activity result in data set [3] and in data set [4] was “Non-toxic” throughout. Besides, the half-maximal inhibitory concentration (IC50) in data set [1] (setting [5]) worked out at 14 µg/mL (≈ 21.4 µM); in data set [1] (hep 3b2), 12 µg/mL (≈ 18.3 µM).
For the compound `COc1cc(P(=O)(c2ccccc2)c2ccccc2)c(-c2c(P(=O)(c3ccccc3)c3ccccc3)cc(OC)nc2OC)c(OC)n1`, the IC50 in data set [1] (setting [5]) is 47 µg/mL (≈ 69.5 µM); in data set [1] (hep 3b2) it was 43 µg/mL and 42 µg/mL.
